According to PubChem BioAssay AID1259407 (Chemical Carcinogenesis Research Information System (CCRIS), 2018):
Calls of active or inactive are those of the source. No rule for the calls is given here.

System: CCRIS mutagenicity, Ames/micronucleus/aberration tests
Test: CCRIS mutagenicity studies
[1] = Test System: AMES SALMONELLA TYPHIMURIUM, Strain/Indicator: TA98, Metabolic Activation: NONE, Method: PREINCUBATION
[2] = Test System: AMES SALMONELLA TYPHIMURIUM, Strain/Indicator: TA98, Metabolic Activation: NONE, Method: STANDARD PLATE
[3] = Test System: AMES SALMONELLA TYPHIMURIUM, Strain/Indicator: TA98, Metabolic Activation: RAT, LIVER, S-9, AROCLOR 1254, Method: STANDARD PLATE
[4] = Test System: AMES SALMONELLA TYPHIMURIUM, Strain/Indicator: TA98, Metabolic Activation: RAT, LIVER, S-9, PHENOBARBITAL AND 5,6-BENZOFLAVONE, Method: PREINCUBATION
[5] = Test System: AMES SALMONELLA TYPHIMURIUM, Strain/Indicator: TA100, Metabolic Activation: NONE, Method: PREINCUBATION
[6] = Test System: AMES SALMONELLA TYPHIMURIUM, Strain/Indicator: TA100, Metabolic Activation: NONE, Method: STANDARD PLATE
[7] = Test System: AMES SALMONELLA TYPHIMURIUM, Strain/Indicator: TA100, Metabolic Activation: RAT, LIVER, S-9, AROCLOR 1254, Method: STANDARD PLATE
[8] = Test System: AMES SALMONELLA TYPHIMURIUM, Strain/Indicator: TA100, Metabolic Activation: RAT, LIVER, S-9, PHENOBARBITAL AND 5,6-BENZOFLAVONE, Method: PREINCUBATION

Measured: mutagenic call

O=C(O)/C=C\C(=O)O
inactive: Test System: AMES SALMONELLA TYPHIMURIUM, Strain/Indicator: TA97, Metabolic Activation: NONE, Method: PREINCUBATION inactive; negative | Test System: AMES SALMONELLA TYPHIMURIUM, Strain/Indicator: TA97, Metabolic Activation: RAT, LIVER, S-9, PHENOBARBITAL AND 5,6-BENZOFLAVONE, Method: PREINCUBATION inactive; negative | [1] inactive; negative | [2] inactive; negative | [3] inactive; negative | [4] inactive; negative | [5] inactive; negative | [6] inactive; negative | [7] inactive; negative | [8] inactive; negative | Test System: AMES SALMONELLA TYPHIMURIUM, Strain/Indicator: TA102, Metabolic Activation: NONE, Method: PREINCUBATION inactive; negative | Test System: AMES SALMONELLA TYPHIMURIUM, Strain/Indicator: TA102, Metabolic Activation: RAT, LIVER, S-9, PHENOBARBITAL AND 5,6-BENZOFLAVONE, Method: PREINCUBATION inactive; negative | Test System: AMES SALMONELLA TYPHIMURIUM, Strain/Indicator: TA104, Metabolic Activation: NONE, Method: PREINCUBATION inactive; negative | Test System: AMES SALMONELLA TYPHIMURIUM, Strain/Indicator: TA104, Metabolic Activation: RAT, LIVER, S-9, PHENOBARBITAL AND 5,6-BENZOFLAVONE, Method: PREINCUBATION inactive; negative | Test System: AMES SALMONELLA TYPHIMURIUM, Strain/Indicator: TA1535, Metabolic Activation: NONE, Method: STANDARD PLATE inactive; negative | Test System: AMES SALMONELLA TYPHIMURIUM, Strain/Indicator: TA1535, Metabolic Activation: RAT, LIVER, S-9, AROCLOR 1254, Method: STANDARD PLATE inactive; negative | Test System: AMES SALMONELLA TYPHIMURIUM, Strain/Indicator: TA1537, Metabolic Activation: NONE, Method: STANDARD PLATE inactive; negative | Test System: AMES SALMONELLA TYPHIMURIUM, Strain/Indicator: TA1537, Metabolic Activation: RAT, LIVER, S-9, AROCLOR 1254, Method: STANDARD PLATE inactive; negative | Test System: AMES SALMONELLA TYPHIMURIUM, Strain/Indicator: TA1538, Metabolic Activation: NONE, Method: STANDARD PLATE inactive; negative | Test System: AMES SALMONELLA TYPHIMURIUM, Strain/Indicator: TA1538, Metabolic Activation: RAT, LIVER, S-9, AROCLOR 1254, Method: STANDARD PLATE inactive; negative

Cc1nn(C)c(NC(=O)CNCCCN2CCCCC2C)c1C(=O)c1ccccc1F (configuration not stated)
inactive: [3] inactive; negative | [7] inactive; negative
active: Test System: AMES SALMONELLA TYPHIMURIUM, Strain/Indicator: TA98, Metabolic Activation: RAT, LIVER, S-9, AROCLOR 1254, Method: PREINCUBATION active; positive | Test System: AMES SALMONELLA TYPHIMURIUM, Strain/Indicator: TA100, Metabolic Activation: RAT, LIVER, S-9, AROCLOR 1254, Method: PREINCUBATION active; positive

CCNc1nc(NC(C)C)[nH]c(=O)n1
inactive: Test System: AMES SALMONELLA TYPHIMURIUM, Strain/Indicator: TA97, Metabolic Activation: NONE, Method: STANDARD PLATE inactive; negative | [2] inactive; negative | [6] inactive; negative

Cc1cc(-c2ccccc2)cc(C)c1N
active: Test System: AMES SALMONELLA TYPHIMURIUM, Strain/Indicator: TA98, Metabolic Activation: RAT LIVER S-9, AROCLOR, Method: STANDARD PLATE active; positive | Test System: AMES SALMONELLA TYPHIMURIUM, Strain/Indicator: TA100, Metabolic Activation: RAT LIVER S-9, AROCLOR, Method: STANDARD PLATE active; positive
inactive: [2] inactive; negative | [6] inactive; negative

CC(C)Br
active: [8] active; positive | Test System: AMES SALMONELLA TYPHIMURIUM, Strain/Indicator: TA1535, Metabolic Activation: NONE, Method: PREINCUBATION active; positive | Test System: AMES SALMONELLA TYPHIMURIUM, Strain/Indicator: TA1535, Metabolic Activation: RAT LIVER S-9, PHENOBARBITAL AND BETA-NAPHTHOFLAVONE, Method: PREINCUBATION active; positive | Test System: AMES SALMONELLA TYPHIMURIUM, Strain/Indicator: TA1535, Metabolic Activation: RAT, LIVER, S-9, PHENOBARBITAL AND 5,6-BENZOFLAVONE, Method: PREINCUBATION active; positive
inactive: End Point: In vitro micronucleus, Test System: Chinese Hamster Ovary (CHO-WBL) cells, Metabolic Activation: None inactive; negative | [1] inactive; negative | Test System: AMES SALMONELLA TYPHIMURIUM, Strain/Indicator: TA98, Metabolic Activation: RAT LIVER S-9, PHENOBARBITAL AND BETA-NAPHTHOFLAVONE, Method: PREINCUBATION inactive; negative | [4] inactive; negative | Test System: AMES SALMONELLA TYPHIMURIUM, Strain/Indicator: TA1537, Metabolic Activation: NONE, Method: PREINCUBATION inactive; negative | Test System: AMES SALMONELLA TYPHIMURIUM, Strain/Indicator: TA1537, Metabolic Activation: RAT LIVER S-9, PHENOBARBITAL AND BETA-NAPHTHOFLAVONE, Method: PREINCUBATION inactive; negative | Test System: AMES SALMONELLA TYPHIMURIUM, Strain/Indicator: TA1537, Metabolic Activation: RAT, LIVER, S-9, PHENOBARBITAL AND 5,6-BENZOFLAVONE, Method: PREINCUBATION inactive; negative | Test System: E. COLI, Strain/Indicator: WP2 UVRA, Metabolic Activation: NONE, Method: PREINCUBATION inactive; negative | Test System: E. COLI, Strain/Indicator: WP2 UVRA, Metabolic Activation: RAT, LIVER, S-9, PHENOBARBITAL AND 5,6-BENZOFLAVONE, Method: PREINCUBATION inactive; negative

O=C(O)C(Br)Br
inactive: End Point: Ames Salmonella typhimurium, Test System: TA98, Metabolic Activation: Hamster, liver, S-9, Aroclor 1254, Method: Preincubation inactive; negative | End Point: In vivo micronucleus, Test System: Peripheral blood erythrocytes, Species: Mouse, Strain/Sex: B6C3F1/Female, Route: Oral (drinking water) inactive; negative (for increased frequencies of micronucleated normochromatic erythrocyte | End Point: In vivo micronucleus, Test System: Peripheral blood erythrocytes, Species: Mouse, Strain/Sex: B6C3F1/Male, Route: Oral (drinking water) inactive; positive (for increased frequencies of micronucleated normochromatic erythrocyte | Test System: AMES SALMONELLA TYPHIMURIUM, Strain/Indicator: RSJ100, Metabolic Activation: NONE, Method: PREINCUBATION inactive; negative | Test System: AMES SALMONELLA TYPHIMURIUM, Strain/Indicator: RSJ100, Metabolic Activation: RAT LIVER S-9, Method: PREINCUBATION inactive; negative | [4] inactive; negative | Test System: Ames Salmonella typhimurium, Strain/Indicator: TA98, Metabolic Activation: None, Method: Preincubation inactive; negative | Test System: Ames Salmonella typhimurium, Strain/Indicator: TA98, Metabolic Activation: Rat, liver, S-9, Aroclor 1254, Method: Preincubation inactive; negative
active: End Point: Ames Salmonella typhimurium, Test System: TA100, Metabolic Activation: Hamster, liver, S-9, Aroclor 1254, Method: Preincubation active; positive | Test System: AMES SALMONELLA TYPHIMURIUM, Strain/Indicator: TA98, Metabolic Activation: RAT LIVER S-9, Method: PREINCUBATION active; positive | Test System: AMES SALMONELLA TYPHIMURIUM, Strain/Indicator: TA100, Metabolic Activation: NONE, Method: FLUCTUATION TEST active; positive | [5] active; positive | Test System: AMES SALMONELLA TYPHIMURIUM, Strain/Indicator: TA100, Metabolic Activation: RAT LIVER S-9, Method: PREINCUBATION active; positive | Test System: AMES SALMONELLA TYPHIMURIUM, Strain/Indicator: TA100, Metabolic Activation: RAT, LIVER, S-9, AROCLOR 1254, Method: FLUCTUATION TEST active; positive | [8] active; positive | Test System: Ames Salmonella typhimurium, Strain/Indicator: TA100, Metabolic Activation: None, Method: Preincubation active; positive | Test System: Ames Salmonella typhimurium, Strain/Indicator: TA100, Metabolic Activation: Rat, liver, S-9, Aroclor 1254, Method: Preincubation active; positive

C/C=C1/C[C@@H](C)[C@](C)(OC(C)=O)C(=O)OC/C2=C/CN(C)CC[C@@H](OC1=O)C2=O
active: Test System: UDS RAT HEPATOCYTES, Strain/Indicator: THY INCORP, Metabolic Activation: NONE, Method: AUTORADIOGRAPHY active; positive
